Data set [1] has as its system AsPC-1. As to the kind of experiment: MTT proliferation assay in AsPC-1 cells. The data set is classed as cell-based. The note with it: Homo sapiens, ASPC1; 72 h drug exposure. As to the method:
(§1) The human pancreatic carcinoma MIA PaCa-2 was purchased from China Centre for Type Culture Collection, AsPC-1 and BxPC-3 cell Lines were purchased from Cell Centre of the Institute of Basic Medical Sciences, Chinese Academy of Medical Sciences and Peking Union Medical College. PANC-1 was kindly provided by Nankai Hospital (Tianjin, China). These cancer cell lines were cultured according to the manufacturer’s instruction.
(§2) Cells were planted in 96-well plates at a density of 3000–4000 cells per well and incubated at 37 °C in a humidified CO2 incubator for 24 h. Then 3-fold diluted concentrations of tested compound were added respectively which was dissolved by DMSO in the ratio of 1:1000. After indicated incubation period, MTT was added to each well and incubated for 4 h at 37 °C. Then, the supernatant was discarded gently, and the precipitate was dissolved in 100 µL of DMSO in each well. The absorbance (A) at 570 nm was detected with a microplate reader (Multiskan MK3; Thermo Fisher Scientific, MA, USA). Vehicle-treated cells were served as the control for the calculation of relative cell viability (%) of treated group at single concentration. IC50 value was calculated directly from the inhibition curve of serial dilution of test compound and was expressed as mean ± SD using the SPSS statistical software (SPSS17.0 Inc., Chicago, IL, USA).

Data set [2] has as its system PANC-1. The data set is described as follows: MTT proliferation assay in PANC-1 cells. The note with it: Homo sapiens, 72 h drug exposure. It counts as cell-based. As to the method:
as §1, §2

The target in data set [3] is CDK9/cyclinT1 (Homo sapiens, UniProt P50750). As to the kind of experiment: CDK9/cyclinT1 Lance Ultra Assay, single concentration screen. It counts as biochemical. The note with it: 50 nM, ATP concentration at Km, read-out: CDK9 inhibitory rate (%) @ 50nM. As for the experimental part: (§3) CDK kinase activity (IC50 values and inhibitory rate at single concentration) was measured using the kinase profiling services (Shanghai ChemPartner Co., Ltd). Compounds were sent to ChemPartner as a solution in DMSO at concentration of 10 mM.

Data set [4] deals with CDK9 (Homo sapiens, UniProt P50750). The data set is described as follows: CDK9 kinase IC50, Mobility shift assay. It counts as biochemical. As to the method: as §3
Data set [5] deals with MIA PaCa-2 cells. As to the kind of experiment: Cell cycle analysis by PI staining and flow cytometry. It counts as cell-based, human. The note with it: 24 h treatment. As to the method:
MIA PaCa-2 cells were incubated with test compound at given concentration for indicated time in 6 well plates. The cells were collected and washed with cold PBS for two times. For cell cycle analysis, cells were fixed with 1 ml of 70% ethanol at −20 °C overnight then re-suspended with 400 µL binding buffer at density of 10^6 cells/mL, with PI staining for 30 min at room temperature. DNA contents were analysed by a BD Accuri C6 flow cytometry (BD Biosciences, Mountain View, CA, USA). For cell apoptosis analysis, after centrifugation and removal of the supernatants, cells were resuspended in 500 µL of 1 ×binding buffer which was then added to 5 µL of annexin V-FITC and incubated at room temperature for 10 min. After adding 10 µL of PI the cells were incubated at room temperature for another 10 min, and their fluorescence intensity evaluated by a BD Accuri C6 (BD Biosciences, Mountain View, CA, USA).

A short description of data set [6]: Oral PK study in rats. It counts as in vivo. The note with it: male, SD, rat, plasma, 30 mg/kg. As for the experimental part: Synthetic compound was administered as a suspension or solution in the saline with 5% DMSO and 5% Solutol. GCTB was dissolved in saline. All of the experiments were approved by the Institutional Animal Care and Use Committee of Institute of Medicinal Biotechnology. All experiments were carried out under ethics committee–approved protocols and in compliance with the guidelines for the care of laboratory animals of Institute of Medicinal Biotechnology, CAMS.
SD rats were purchased from Beijing Vital River Laboratory Animal Technology Co., Ltd and randomly divided into three groups (n = 3, male). The animals were housed under standard conditions and fastened for 12 h before the treatment. They had free access to water and consumed a standard laboratory diet from 4 h after administration. Blood was taken from the orbital venous plexus at 0, 0.083, 0.25, 0.5, 1, 2, 4, 6, 8, and 24 h after intragastric administration of the test compound (30 mg/kg). The blood samples were collected into heparin anticoagulated EP tubes and centrifuged at 8000 r/min for 5 min at 2−8 °C; the plasma was separated and stored at −70 °C for use. Plasma was centrifuged at 4000 rpm for 10 min at 2−8 °C and stored at −70 °C until analysis. Plasma samples were analysed by LC-MS/MS (AB Sciex API4000 QTRAP) equipped with an ESI ion resource and Analyst 1.5.1 software. The noncompartmental model analysis was used for calculating pharmacokinetic parameters with the WinNolin professional v6.3 program (Pharsight, USA).

Data set [7] is described as follows: Drug concentration in tumour tissue and plasma of tumour-bearing mice. It counts as in vivo, BALB/C nude mice. The note with it: for concentration at 1 h / concentration at 4 h: female, BALB/C nude, mouse, tumour-bearing mice (n = 3); for concentration at 1 h: 1.0 h after 30 mg/kg single oral dosing; for concentration at 4 h: 4.0 h after 30 mg/kg single oral dosing. As to the method:
AsPC-1 (5 × 10^7) cells were injected subcutaneously into 5-week-old female BALB/C nude mice (Beijing Huafukang Bioscience CO. Inc, Beijing, China). After two weeks, mice were omogenizamised and treated with vehicle, gemcitabine (GCTB), or test compound. Blank solvent and test compound was administered by oral gavage (10 ml/kg) with once daily of five days and followed by 2 days off in each week, GCTB was given once a week by 50 mg/kg intraperitoneal injection. Mice were inspected daily for clinical signs, both tumour diameters and body weight were determined 3 times weekly. Tumour volumes were calculated according to the formula “tumor volume (V) = length × width^2/2”. Median TGI values were calculated as follows: TGI = 100 × [1-(Vtreated group at day20-Vtreated group at day1)/(Vvehicle group at day20-Vvehicle group at day1)]. Data were plotted as average with SD in the graphical representation of tumour growth. The p values obtained from the two-way ANOVA analysis. Meanwhile, main organs of mice were collected, formalin-fixed and paraffin-embedded for pathological analysis by H&E dyeing. For drug concentration determination, blood and tumour tissues were collected at indicated time after single administration. Standard curve of test compound was established in the acquisition mode of SIM using a SHIMADZU LC-MS instrument. Blood kept in anticoagulant tube coated with heparin sodium was centrifuged to provide the supernatant, which was followed by added with 3-fold acetonitrile to precipitate plasma protein. After centrifugation at 10 × 10^3 for 5 min, the supernatant was injected directedly into LC-MS instrument for quantification of drug concentration. As for tumour tissues, omogenizationation (Precellys Evolution) was done after weighed accurately and added with 3-fold saline. After centrifugation under same condition as plasma samples, supernatant was separated and injected into LC-MS for quantification.

Data set [8] in a line: Solubility / precipitation observations. It counts as physicochemical.
Setting [9] is: plasma, read-out: Drug concentration (µM) Plasma.
Where [10] appears, read: read-out: Drug concentration (µM) Tumour.

Where two headings read alike, the source gives them in different places.

CDK9, sequence (P50750 whole entry): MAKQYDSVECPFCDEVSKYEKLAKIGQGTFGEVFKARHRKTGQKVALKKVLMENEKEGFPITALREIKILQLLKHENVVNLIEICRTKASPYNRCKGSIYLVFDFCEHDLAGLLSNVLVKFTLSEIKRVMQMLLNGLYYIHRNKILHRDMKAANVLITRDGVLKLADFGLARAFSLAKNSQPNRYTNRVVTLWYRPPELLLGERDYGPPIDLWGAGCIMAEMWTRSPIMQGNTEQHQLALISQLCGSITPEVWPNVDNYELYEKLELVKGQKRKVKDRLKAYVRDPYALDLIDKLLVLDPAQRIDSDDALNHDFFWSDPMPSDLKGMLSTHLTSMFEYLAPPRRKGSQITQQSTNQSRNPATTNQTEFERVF
CDK9, sequence (O60563 whole entry partner): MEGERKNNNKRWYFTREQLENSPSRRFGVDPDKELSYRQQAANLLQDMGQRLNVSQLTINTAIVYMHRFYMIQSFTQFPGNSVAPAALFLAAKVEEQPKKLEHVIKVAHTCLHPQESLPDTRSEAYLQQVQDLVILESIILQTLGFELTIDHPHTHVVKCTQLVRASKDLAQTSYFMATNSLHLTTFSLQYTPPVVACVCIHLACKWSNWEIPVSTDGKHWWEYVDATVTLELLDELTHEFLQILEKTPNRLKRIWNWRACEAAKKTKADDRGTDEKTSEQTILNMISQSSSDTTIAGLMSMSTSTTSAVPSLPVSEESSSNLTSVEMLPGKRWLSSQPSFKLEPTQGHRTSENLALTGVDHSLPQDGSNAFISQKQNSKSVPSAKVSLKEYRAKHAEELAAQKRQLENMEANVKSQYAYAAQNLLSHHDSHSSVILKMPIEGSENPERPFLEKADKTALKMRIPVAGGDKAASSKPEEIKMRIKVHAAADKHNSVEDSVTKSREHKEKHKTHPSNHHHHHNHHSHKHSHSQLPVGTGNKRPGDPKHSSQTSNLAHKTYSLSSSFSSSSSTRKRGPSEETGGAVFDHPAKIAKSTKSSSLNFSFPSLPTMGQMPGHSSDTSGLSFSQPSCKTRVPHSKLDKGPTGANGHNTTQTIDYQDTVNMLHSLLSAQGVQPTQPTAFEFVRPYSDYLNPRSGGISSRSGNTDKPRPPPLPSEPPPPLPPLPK
CDK9/cyclinT1, sequence (P50750 whole entry): as the sequence (P50750 whole entry) above
CDK9/cyclinT1, sequence (O60563 whole entry partner): as the sequence (O60563 whole entry partner) above

The compound `CN(C)C(=O)c1cc2cnc(Nc3ccc(S(N)(=O)=O)cc3)nc2n1C1CCCC1` [compound 2g, 7-Cyclopentyl-N,N-dimethyl-2-((4-sulfamoylphenyl)amino)-7H-pyrrolo[2,3-d]pyrimidine-6-carboxamide] came in with an IC50 in data set [1] of 1.4 ± 0.034 µM. Also, in data set [2], the IC50 worked out at 11 ± 4.97 µM. Besides, the inhibition at 0.05 µM in data set [3] was 97.8%. In addition, the IC50 in data set [4] was found to be 5 nM. For the same compound, the “effect on cell cycle” value in data set [5] (0.1 µM) was “cell cycle arrest at G1 phase”. In data set [5] (0.3 and 1.0 µM), the “effect on cell cycle” value is “modest G2/M-arrested effect”. Also, in data set [6] (single oral administration, read-out: maximum plasma drug concentration (Cmax)), the Cmax is 1160 ng/mL. Moreover, the AUC in data set [6] (single oral administration, read-out: systematic exposure (AUC0‑t)) stood at 4620 ng·h/mL. For the same compound, in data set [6] (oral, n = 3), the AUC(0-inf) worked out at 5080 ± 268 ng·h/mL, the AUC(0-t) stood at 4620 ± 145 ng·h/mL, the MRT came to 7.72 h and the Tmax worked out at 0.5 h. Besides, the half-life in data set [6] (oral, n = 3) was 7.54 h. Further, the Cmax in data set [6] (oral, n = 3, read-out: Cmax) was found to be 2700 nM. Also, the “drug concentration in plasma and tumour tissue relative to cellular IC50 value” in data set [7] (30 mg/kg single oral dosing, both plasma and tumour tissue) was “higher than 2 fold”. Besides, in data set [7] (setting [9]), the concentration at 1 h is 7.46 ± 1.95 µM and the concentration at 4 h is 0.53 ± 0.41 µM. Moreover, in data set [7] (setting [10]), the concentration at 1 h was found to be 3.13 ± 0.64 µM and the concentration at 4 h was 0.48 ± 0.34 µM. The “solubility (in words)” value in data set [8] is “much poorer than 5b”.

These data come from publication PMC9858427, “Design, synthesis and biological evaluation of 2-((4-sulfamoylphenyl)amino)-pyrrolo[2,3-d]pyrimidine derivatives as CDK inhibitors” (Journal of Enzyme Inhibition and Medicinal Chemistry, 2023).
